Source: article PMC8049054, “Systematic Assessment of Fragment Identification for Multitarget Drug Design” (Chemmedchem, 2021)

Assays:
Format in all cases: binding
Conditions in all cases: 500 μM fragment, mean of duplicates
[1] = target: T1, leukotriene A4 hydrolase (LTA4H) (Homo sapiens, UniProt P09960); assay: Differential scanning fluorimetry (DSF) screen on LTA4H
T1 construct: made in house; host or cells: E. coli BL21 (DE3)
T1 sequence (P09960 1-611): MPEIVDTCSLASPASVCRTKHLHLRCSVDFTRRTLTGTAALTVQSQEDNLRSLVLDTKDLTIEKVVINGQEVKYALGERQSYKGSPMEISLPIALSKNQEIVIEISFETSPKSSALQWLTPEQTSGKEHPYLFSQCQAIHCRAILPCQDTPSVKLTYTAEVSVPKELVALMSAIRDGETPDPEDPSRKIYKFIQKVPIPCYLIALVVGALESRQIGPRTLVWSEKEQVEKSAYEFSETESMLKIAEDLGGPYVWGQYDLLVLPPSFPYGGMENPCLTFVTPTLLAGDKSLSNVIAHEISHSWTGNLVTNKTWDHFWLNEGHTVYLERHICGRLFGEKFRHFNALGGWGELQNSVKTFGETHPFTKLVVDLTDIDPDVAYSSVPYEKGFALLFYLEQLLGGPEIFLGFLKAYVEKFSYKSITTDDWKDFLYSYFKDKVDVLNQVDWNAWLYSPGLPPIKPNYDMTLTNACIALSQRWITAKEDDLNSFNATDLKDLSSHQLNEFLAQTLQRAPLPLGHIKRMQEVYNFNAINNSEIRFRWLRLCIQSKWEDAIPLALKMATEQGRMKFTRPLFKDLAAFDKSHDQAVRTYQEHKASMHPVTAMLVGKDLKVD
Description: (§1) For the primary screen of this fragment library, we employed differential scanning fluorimetry (DSF, also known as thermal shift). DSF is generally applicable to a large panel of protein targets and provides a robust, low‐cost screening technology for fragment‐based approaches. ^[20] All five proteins of our interest are soluble and were recombinantly expressed in Escherichia coli. We performed an initial fragment screen on all five targets by DSF. The use of a uniform screening method for all targets ensured consistent data and provided the opportunity to identify false positive hits which interfered with the screening technology. The conditions of the DSF assay were optimized for the desired screening and validated with reference compounds (Table S1 in the Supporting Information). Compounds causing a positive thermal shift ΔT m≥1.0 °C were considered as active.
(§2) DSF measurement of the PDFL (single concentration of 500 μM, duplicates, 96‐well format) on the five proteins retrieved 19 fragment hits on sEH, 28 on LTA4H, 12 on 5‐LOX, 16 on RXRα, and 14 on FXR, respectively. Melting point distributions of the screening library for all five targets are depicted in Figure 2. Amongst the hits, three compounds (Table S2) gave a positive signal on all five proteins likely qualifying them as pan assay interference compounds (PAINS). ^[21] Fragments binding to multiple targets (Scheme 1) were identified for seven out of ten target combinations (Figure 2, Table 1). Among them, fragments 4, 6, 7, and 9 match previously identified privileged scaffolds for fatty acid mimetics. ^[14] […] Active ligands containing N‐phenylbenzamide 6 and the N‐phenylbenzylamine 7 have been described for four of the protein targets. Furthermore, indole, which has been characterized as a privileged heterocycle for fatty acid mimetics, ^[14] is present in fragments 5 and 10. Dual 5‐LOX/RXR ligand 1 was present in 5‐LOX inhibitors, while dual FXR/LTA4H modulator 3 is found among known FXR ligands. Fragments 2 (sEH/5‐LOX) and 8 (LTA4H/RXR) are novel scaffolds not appearing in known ligands of any of the five targets.
(§3) Figure S3: SDS page of the purified proteins (proteins RXRα and FXR after TEV cleavage) using a 14% polyacrylamide gel, which was stained with coomassi. Precision Plus Protein™ Unstained Protein Standard s (Bio-Rad Laboratories, Inc. ) was used […]
(§4) All experiments were performed as duplicates using MicroAmp fast 96 -well plates. Each plate contained 80 different compound wells and 16 DMSO control wells. First 0.8 µl of a 25 mM Preswick Library Fragment dilution in DMSO or pure DMSO were placed in each of the well (final concentration 500 µM). Then 39.2 µl of the master mi x (containing protein, Triton x -100, SYPRO® Orange Protein Gel Stain and buffer that corresponds to the tested protein) were added.
(§5) Table S4: Final concentrations in DSF experiments: […]
(§6) The measurements were performed using a iCycler iQ™ Single -Color Real Time PCR device with a heat rate of 1 °C per min, an excitation wavelength of 490 nm and an emission wavelength of 570 nm. The first derivation calculated by MyiQ Op tical Software 1.0 was analyzed using Microsoft Office Excel 2013 by comparing the maxima. A shift of 1 °C (in case of 5 -LOX 0.9°C) or more compared to the DMSO control were assumed as potentially binding of the fragment.
(§7) (1 picture or pasted object on this page, not shown here)

5‐lipoxygenase (5‐LOX) = target: T2, 5‐lipoxygenase (5‐LOX) (Homo sapiens, UniProt P09917); assay: Differential scanning fluorimetry (DSF) screen on 5-LOX
T2 construct: made in house; host or cells: E. coli BL21 (DE3)
T2 sequence (P09917 1-674): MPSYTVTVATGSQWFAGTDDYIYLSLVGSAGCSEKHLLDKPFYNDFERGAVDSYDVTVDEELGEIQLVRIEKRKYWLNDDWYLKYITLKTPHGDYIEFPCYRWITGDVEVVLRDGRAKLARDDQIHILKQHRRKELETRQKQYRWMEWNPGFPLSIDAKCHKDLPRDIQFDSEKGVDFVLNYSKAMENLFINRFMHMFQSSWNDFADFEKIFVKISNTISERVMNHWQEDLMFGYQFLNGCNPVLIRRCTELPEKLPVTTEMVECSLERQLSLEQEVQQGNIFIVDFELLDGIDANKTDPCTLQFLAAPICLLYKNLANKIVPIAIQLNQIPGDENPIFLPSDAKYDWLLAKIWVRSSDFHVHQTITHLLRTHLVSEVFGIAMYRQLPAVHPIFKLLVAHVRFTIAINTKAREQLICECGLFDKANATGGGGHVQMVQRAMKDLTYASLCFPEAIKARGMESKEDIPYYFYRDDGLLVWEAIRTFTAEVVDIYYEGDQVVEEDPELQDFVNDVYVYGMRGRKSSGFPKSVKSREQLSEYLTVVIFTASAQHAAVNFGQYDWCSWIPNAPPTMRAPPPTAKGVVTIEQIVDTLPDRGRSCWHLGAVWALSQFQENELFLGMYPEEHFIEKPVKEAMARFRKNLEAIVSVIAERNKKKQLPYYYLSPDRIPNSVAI
Description: as §1, §2, §3, §4, §5
5-LOX 500 µM compound, 3.5 µM protein, 0.87x DPBS, 0.87 mM EDTA, 0.01% (W/V) Triton X-100, 2.1% DMSO and 5x SYPRO® with a pH = 7.5 […]
as §6, §7

RXRα = system: T3, RXRα; assay: Differential scanning fluorimetry (DSF) screen on RXRα
T3 construct: MBP (N, cleaved yes); poly-N-tag, His8-tag, TEV site (N, cleaved yes); made in house; host or cells: E. coli T7-express with pGro7 (GroEL/ES)
Description: as §1, §2, §3, §4, §5, §6, §7

DSF/ΔT m LTA4H [1] [°C]	DSF/ΔT m 5‐LOX (5‐lipoxygenase (5‐LOX)) [°C]	SMILES	DSF/ΔT m RXRα (RXRα) [°C]
−0.1±2.1	1.1±0.0	Cc1cc(=O)n(-c2ccc(C)c(C)c2)[nH]1 [Compound 2]	−9.5±24.0
2.5±0.0	−1.1±0.0	CCCCOc1cc(C(=O)OC)ccc1N [Compound 3]	−2.9±0.0
1.5±0.0	−1.1±0.0	Oc1ccc(Cc2ccccc2)cc1 [Compound 4]	−2.4±0.7
1.7±0.0	−0.1±0.0	Oc1ccc2cc[nH]c2c1 [Compound 5]	0.8±0.7
0.5±0.0	0.9±0.0	CCN(Cc1ccccc1)c1ccccc1 [Compound 7]	−0.4±0.7
1.5±0.0	−0.1±0.0	Clc1ccc2c(c1)Nc1ccccc1CC2 [Compound 8]	–
0.7±0.0	−1.1±0.0	Oc1ccc(-c2ccc(F)cc2F)cc1 [Compound 9]	2.3±0.0
2.4±0.0	0.9±0.0	Fc1ccc(-c2c[nH]c3ccccc23)cc1 [Compound 10]	1.9±0.0

SMILES	DSF/ΔT m LTA4H [1] [°C]	DSF/ΔT m 5‐LOX (5‐lipoxygenase (5‐LOX)) [°C]	DSF/ΔT m RXRα (RXRα) [°C]
c1ccc(N2CCNCC2)nc1 [Compound 1]	−0.5±0.0	0.9±0.0	1.1±0.0
Cc1ccccc1C(=O)Nc1ccccc1 [Compound 6]	1.4±1.4	−1.4±2.1	−1.0±0.7
